Active and inactive are the calls of the source. No cut-off for these calls is given here. Bounds are passed on as bounds.

The subject of data set [1] is HUVEC. The data set can be described thus: Toxicity in HUVEC assessed as inhibition of tube formation at 200 nM incubated for 20 hrs by optical microscopy based matrigel-based assay. Format: cell-based. The conditions noted are these: human, 0.2 µM.
Another data set relates to H9c2. The data set can be described thus: Antiproliferative activity against rat H9C2 cells incubated for 3 days by CCK8 assay. Format: cell-based. The note with it: H9c2, 72 h.
The subject of another data set is BaF3. The data set can be described thus: Antiproliferative activity against wild type mouse BA/F3 cells incubated for 3 days by CCK8 assay. Format: cell-based. The conditions noted are these: BaF3, 72 h.
The test system of data set [2] is HUVEC. The data set can be described thus: Antiproliferative activity against human HUVEC incubated for 3 days by CCK8 assay. Format: cell-based. The conditions noted are these: 72 h. For orientation: Tetrazolium assays rely on reduction of a dye to a coloured formazan, in cell work by metabolically active cells.
Another data set relates to K562. The data set can be described thus: Antiproliferative activity against human K562 cells incubated for 3 days by CCK8 assay. Format: functional, cell-based. The conditions noted are these: K562, 72 h.
The target of data set [3] is Protein cereblon/Tyrosine-protein kinase ABL1/Breakpoint cluster region protein (Homo sapiens, UniProt P00519+P11274+Q96SW2). The data set can be described thus: Protac activity at Cereblon/BCR/ABL in human K562 cells assessed as induction of BCR-ABL degradation incubated for 32 to 48 hrs by Western blot analysis. Format: cell-based. In general terms: Immunoblotting shows a protein as a band on a membrane.

The target of data set [4] is Protein cereblon/Tyrosine-protein kinase ABL1/Breakpoint cluster region protein (Homo sapiens, UniProt P00519+P11274+Q96SW2, T315I). In kind it is cell-based, BaF3.
Data set [5] deals with Protein cereblon/Tyrosine-protein kinase ABL1/Breakpoint cluster region protein (Homo sapiens), P00519+P11274+Q96SW2 [T315I]. The data set can be described thus: Protac activity at Cereblon/BCR/ABL T315I mutant (unknown origin) expressed in mouse BaF3 cells assessed as reduction in BCR-ABL T315I mutant protein levels at 3 to 30000 nM incubated for 48 hrs by Western blot analysis. Format: cell-based.

Data set [6] has the same test system. The data set can be described thus: Protac activity at Cereblon/BCR/ABL T315I mutant (unknown origin) expressed in mouse BaF3 cells assessed as reduction in BCR-ABL T315I mutant protein levels at 3 to 30000 nM incubated for 32 hrs by Western blot analysis. In kind it is cell-based.
Data set [7] shares this test system. The data set can be described thus: Protac activity at Cereblon/BCR/ABL T315I mutant (unknown origin) expressed in mouse BaF3 cells assessed as reduction in BCR-ABL T315I mutant protein levels at 1 uM incubated for 48 hrs by Western blot analysis. In kind it is cell-based.

Take `Cc1ccc(C(=O)Nc2ccc(CN3CCN(C)CC3)c(C(F)(F)F)c2)cc1C#Cc1cnc2cccnn12` [PONATINIB]: in the data set on HUVEC [1], the Activity result is “Toxic”. The 50% effective concentration (EC50) came to 379 nM in the data set on H9c2, 438 nM with BaF3 and 515 nM in the data set with HUVEC [2]. Besides, in the data set with K562, the IC50 was found to be 0.3 nM. For `Cc1nc(Nc2ncc(C(=O)Nc3c(C)cccc3Cl)s2)cc(N2CCN(C(=O)CCCc3cn(CCOCCOCCOCCNc4cccc5c4C(=O)N(C4CCC(=O)NC4=O)C5=O)nn3)CC2)n1` (stereo not given), the DC50 in data set [3] was 56 nM. Take `Cc1nc(Nc2ncc(C(=O)Nc3c(C)cccc3Cl)s2)cc(N2CCN(C(=O)CCCc3cn(CCOCCNc4cccc5c4C(=O)N(C4CCC(=O)NC4=O)C5=O)nn3)CC2)n1` (stereo not given): the DC50 in data set [3] was 56 nM. Regarding `Cc1nc(Nc2ncc(C(=O)Nc3c(C)cccc3Cl)s2)cc(N2CCN(C(=O)CCCc3cn(CCOCCOCCOCCOCCNc4cccc5c4C(=O)N(C4CCC(=O)NC4=O)C5=O)nn3)CC2)n1` (stereo not given), in data set [3], the DC50 was determined as 10 nM. The concentration for a half-maximal effect (EC50) (in data set [4]; in the data set with BaF3) was over 10000 nM each time. The outcome in [5] was inactive. In the data set on K562, this molecule returned an IC50 of 9.2 nM.

For `Cc1nc(Nc2ncc(C(=O)Nc3c(C)cccc3Cl)s2)cc(N2CCN(C(=O)CCCc3cn(CCOCCOCCNc4cccc5c4C(=O)N(C4CCC(=O)NC4=O)C5=O)nn3)CC2)n1` (stereo not given), the half-maximal degradation concentration (DC50) in data set [3] amounted to 20 nM. On the same count and under the same terms, the same measure for `Cc1ccc(C(=O)Nc2ccc(CN3CCN(C(=O)CCCc4cn(CCNc5cccc6c5C(=O)N(C5CCC(=O)NC5=O)C6=O)nn4)CC3)c(C(F)(F)F)c2)cc1C#Cc1cnc2cccnn12` (stereo not given): 625 nM. Take `C#CCCCC(=O)N1CCN(c2cc(Nc3ncc(/C=C/c4cccc(F)c4)s3)nc(C)n2)CC1`: the EC50 in data set [4] amounted to 770 nM. This lies in the sub-micromolar range. Consider `Cc1ccc(NC(=O)c2ccc(CN3CCN(C(=O)CCCc4cn(CCNc5cccc6c5C(=O)N(C5CCC(=O)NC5=O)C6=O)nn4)CC3)cc2)cc1Nc1nccc(-c2cccnc2)n1` (stereo not given), for which the half-maximal degradation concentration (DC50) in data set [3] was over 10000 nM.

With `Cc1ccc(NC(=O)c2ccc(CN3CCN(C(=O)CCCc4cn(CCOCCNc5cccc6c5C(=O)N(C5CCC(=O)NC5=O)C6=O)nn4)CC3)cc2)cc1Nc1nccc(-c2cccnc2)n1` (stereo not given), in data set [3], the DC50 was over 10000 nM. Consider `C#CCCCC(=O)N1CCN(c2cc(Nc3ncc(/C=C/c4cccc(OC)c4)s3)nc(C)n2)CC1`, for which, in [4], the EC50 is over 10000 nM. On the same count and under the same terms, the same measure for `C#CCCCC(=O)N1CCN(c2cc(Nc3ncc(/C=C/c4cc(F)cc(F)c4)s3)nc(C)n2)CC1`: 1500 nM; for `C#CCCCC(=O)N1CCN(c2cc(Nc3ncc(/C=C/c4cccc(O)c4)s3)nc(C)n2)CC1`: 1300 nM. As for `O=C1CCC(N2C(=O)c3cccc(NCCOCCOCCOCCn4cc(CCCC(=O)N[C@@H]5CCN(c6ncc(C(=O)Nc7ccc(OC(F)(F)Cl)cc7)cc6-c6cc[nH]n6)C5)nn4)c3C2=O)C(=O)N1` (stereo not given in full), the 50% degradation concentration (DC50) in data set [3] was 200 nM. The 50% effective concentration (EC50) in data set [4] was 1020 nM; in the data set with BaF3 it was over 10000 nM. Further, the 50% inhibitory concentration (IC50) in the data set on K562 was 121 nM. Besides, the result in [6] was Active. Turning to `O=C1CCC(N2C(=O)c3cccc(NCCOCCOCCn4cc(CCCC(=O)N[C@@H]5CCN(c6ncc(C(=O)Nc7ccc(OC(F)(F)Cl)cc7)cc6-c6cc[nH]n6)C5)nn4)c3C2=O)C(=O)N1` (stereo not given in full), in data set [3], the half-maximal degradation concentration (DC50) worked out at 300 nM. With `Cc1ccc(NC(=O)c2ccc(CN3CCN(C(=O)CCCc4cn(CCOCCOCCNc5cccc6c5C(=O)N(C5CCC(=O)NC5=O)C6=O)nn4)CC3)cc2)cc1Nc1nccc(-c2cccnc2)n1` (stereo not given), the 50% degradation concentration (DC50) in data set [3] was over 10000 nM. The molecule `Cc1nc(Nc2ncc(C(=O)Nc3c(C)cccc3Cl)s2)cc(N2CCN(CCCCCCOCCOCCOCCCCCC(=O)Nc3cccc4c3C(=O)N(C3CCC(=O)NC3=O)C4=O)CC2)n1` (stereo not given) registered an EC50 in the data set with BaF3 of over 10000 nM. Also, the result in [5] was inactive. The molecule further displayed a 50% inhibitory concentration (IC50) in the data set on K562 of 8 nM. As to `Cc1ccc(C(=O)Nc2ccc(CN3CCN(C(=O)CCCc4cn(CCOCCOCCOCCOCCNc5cccc6c5C(=O)N(C5CCC(=O)NC5=O)C6=O)nn4)CC3)c(C(F)(F)F)c2)cc1C#Cc1cnc2cccnn12` (stereo not given), the half-maximal degradation concentration (DC50) in data set [3] came out at 70 nM. Consider `C#CCCCC(=O)N1CCN(c2cc(Nc3ncc(/C=C/c4cccc(C)c4)s3)nc(C)n2)CC1`, for which the EC50 in data set [4] was 450 nM.

With `C#CCCCC(=O)N1CCN(c2cc(Nc3ncc(C)s3)nc(C)n2)CC1`, in [4], the EC50 is over 10000 nM.

As for `C#CCCCC(=O)N1CCN(c2cc(Nc3ncc(/C=C/c4ccc(F)cc4)s3)nc(C)n2)CC1`, in data set [4], the concentration giving a half-maximal response (EC50) came to 3200 nM. With `Cc1nc(Nc2ncc(C(=O)Nc3c(C)cccc3Cl)s2)cc(N2CCN(CCO)CC2)n1` [DASATINIB], the 50% effective concentration (EC50) with BaF3 was over 10000 nM. In addition, the 50% inhibitory concentration (IC50) in the data set on K562 was found to be 0.19 nM. Take `O=C1CCC(N2C(=O)c3cccc(NCCn4cc(CCCC(=O)N[C@@H]5CCN(c6ncc(C(=O)Nc7ccc(OC(F)(F)Cl)cc7)cc6-c6cc[nH]n6)C5)nn4)c3C2=O)C(=O)N1` (stereo not given in full): the 50% degradation concentration (DC50) in data set [3] is over 625 nM. Molecule `Cc1ccc(NC(=O)c2ccc(CN3CCN(C)CC3)cc2)cc1Nc1nccc(-c2cccnc2)n1` [IMATINIB] displayed a half-maximal inhibitory concentration (IC50) in the data set on K562 of 76.2 nM. As to `Cc1cccc(/C=C/c2cnc(Nc3cc(N4CCN(C(=O)CCCc5cn(CCOCCOCCOCCOCCNc6cccc7c6C(=O)N(C6CCC(=O)NC6=O)C7=O)nn5)CC4)nc(C)n3)s2)c1` (stereo not given), the 50% effective concentration (EC50) in [4] is 6100 nM; in the data set with BaF3 it was over 10000 nM. Besides, the result in [5] and in data set [7] was Active. For the molecule `C#CCCCC(=O)N1CCN(c2cc(Nc3ncc(/C=C/c4ccc(F)c(F)c4)s3)nc(C)n2)CC1`, the half-maximal effective concentration (EC50) in data set [4] was 570 nM. For the molecule `Cc1ccc(C(=O)Nc2ccc(CN3CCN(C(=O)CCCc4cn(CCOCCOCCNc5cccc6c5C(=O)N(C5CCC(=O)NC5=O)C6=O)nn4)CC3)c(C(F)(F)F)c2)cc1C#Cc1cnc2cccnn12` (stereo not given), the DC50 in [3] amounted to 70 nM. On the same count and under the same terms, to `Cc1nc(Nc2ncc(C(=O)Nc3c(C)cccc3Cl)s2)cc(N2CCN(C(=O)CCCc3cn(CCNc4cccc5c4C(=O)N(C4CCC(=O)NC4=O)C5=O)nn3)CC2)n1` (stereo not given) belongs 56 nM; to `Cc1ccc(C(=O)Nc2ccc(CN3CCN(C(=O)CCCc4cn(CCOCCNc5cccc6c5C(=O)N(C5CCC(=O)NC5=O)C6=O)nn4)CC3)c(C(F)(F)F)c2)cc1C#Cc1cnc2cccnn12` (stereo not given), 70 nM. Same read-out and setting: to `Cc1ccc(NC(=O)c2ccc(CN3CCN(C(=O)CCCc4cn(CCOCCOCCOCCNc5cccc6c5C(=O)N(C5CCC(=O)NC5=O)C6=O)nn4)CC3)cc2)cc1Nc1nccc(-c2cccnc2)n1` (stereo not given) belongs over 10000 nM; to `Cc1ccc(NC(=O)c2ccc(CN3CCN(C(=O)CCCc4cn(CCOCCOCCOCCOCCNc5cccc6c5C(=O)N(C5CCC(=O)NC5=O)C6=O)nn4)CC3)cc2)cc1Nc1nccc(-c2cccnc2)n1` (stereo not given), over 10000 nM; to `O=C1CCC(N2C(=O)c3cccc(NCCOCCn4cc(CCCC(=O)N[C@@H]5CCN(c6ncc(C(=O)Nc7ccc(OC(F)(F)Cl)cc7)cc6-c6cc[nH]n6)C5)nn4)c3C2=O)C(=O)N1` (stereo not given in full), 400 nM. The same measure, in the same setting: the same measure for `O=C1CCC(N2C(=O)c3cccc(NCCOCCOCCOCCOCCn4cc(CCCC(=O)N[C@@H]5CCN(c6ncc(C(=O)Nc7ccc(OC(F)(F)Cl)cc7)cc6-c6cc[nH]n6)C5)nn4)c3C2=O)C(=O)N1` (stereo not given in full): 500 nM.

In general, EC50 refers to the concentration giving half of the maximal effect. A high value points to a less potent agent. One may read the IC50 as the concentration needed to halve the response being measured. Read a low IC50 as higher potency. In general, DC50 refers to the concentration at which degradation of the target reaches its halfway point.

The values are drawn from ChEMBL document CHEMBL4616725, “Global PROTAC Toolbox for Degrading BCR-ABL Overcomes Drug-Resistant Mutants and Adverse Effects” (J Med Chem, 2020).
